Assay results from ChEMBL document CHEMBL1201862, “PubChem BioAssay data set” (2004).
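A five-concentration, 48-hour dose response in 96-well plates underlies each endpoint, interpolated linearly between surrounding concentrations. At the GI50, growth is halved.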 Active and inactive are the calls of the source. Cut-off read from the data, not from the text of the source: active = GI50 up to about 1.1 µM and inactive = higher.

How the values were obtained:
Test in all cases: NCI tumour cell line growth inhibition, 48 h
786-0 = test system: 786-0
A498 = test system: A498
A549 = test system: A549
ACHN = test system: ACHN
BT-549 = test system: BT-549
CAKI-1 = test system: CAKI-1
CCRF-CEM = test system: CCRF-CEM
COLO 205 = test system: COLO 205
DU-145 = test system: DU-145
EKVX = test system: EKVX
HCC 2998 = test system: HCC 2998
HCT-116 = test system: HCT-116
HCT-15 = test system: HCT-15
HL-60 = test system: HL-60
HOP-62 = test system: HOP-62
HOP-92 = test system: HOP-92
HT-29 = test system: HT-29
Hs-578T = test system: Hs-578T
IGROV-1 = test system: IGROV-1
K562 = test system: K562
KM12 = test system: KM12
LOX IMVI = test system: LOX IMVI
M14 = test system: M14
MCF7 = test system: MCF7
MDA-MB-231 = test system: MDA-MB-231
MDA-MB-435 = test system: MDA-MB-435
MDA-N = test system: MDA-N
MOLT-4 = test system: MOLT-4
Malme-3M = test system: Malme-3M
NCI-H226 = test system: NCI-H226
NCI-H23 = test system: NCI-H23
NCI-H460 = test system: NCI-H460
NCI-H522 = test system: NCI-H522
NCI/ADR-RES = test system: NCI/ADR-RES
OVCAR-3 = test system: OVCAR-3
OVCAR-4 = test system: OVCAR-4
OVCAR-5 = test system: OVCAR-5
OVCAR-8 = test system: OVCAR-8
PC-3 = test system: PC-3
RPMI-8226 = test system: RPMI-8226
RXF 393 = test system: RXF 393
SF-268 = test system: SF-268
SF-295 = test system: SF-295
SF-539 = test system: SF-539
SK-MEL-28 = test system: SK-MEL-28
SK-MEL-2 = test system: SK-MEL-2
SK-MEL-5 = test system: SK-MEL-5
SK-OV-3 = test system: SK-OV-3
SN12C = test system: SN12C
SNB-19 = test system: SNB-19
SNB-75 = test system: SNB-75
SR = test system: SR
SW-620 = test system: SW-620
T47D = test system: T47D
TK-10 = test system: TK-10
U-251 = test system: U-251
UACC-257 = test system: UACC-257
UACC-62 = test system: UACC-62
UO-31 = test system: UO-31

Measured: GI50

N#C/C(=C\Nc1ccccn1)C(=O)C1CC1
inactive: 786-0 > 100 µM | A498 > 100 µM | A549 > 100 µM | ACHN > 100 µM | BT-549 > 100 µM | CAKI-1 > 100 µM | CCRF-CEM 76.9 µM | COLO 205 > 100 µM | DU-145 > 100 µM | EKVX > 100 µM | HCC 2998 > 100 µM | HCT-116 > 100 µM | HL-60 > 100 µM | HOP-62 > 100 µM | HOP-92 > 100 µM | HT-29 > 100 µM | Hs-578T > 100 µM | IGROV-1 > 100 µM | K562 > 100 µM | KM12 > 100 µM | LOX IMVI > 100 µM | M14 > 100 µM | MCF7 > 100 µM | MDA-MB-231 > 100 µM | MDA-MB-435 > 100 µM | MDA-N > 100 µM | MOLT-4 > 100 µM | Malme-3M > 100 µM | NCI-H226 > 100 µM | NCI-H23 > 100 µM | NCI-H460 > 100 µM | NCI-H522 > 100 µM | NCI/ADR-RES > 100 µM | OVCAR-3 > 100 µM | OVCAR-4 > 100 µM | OVCAR-5 > 100 µM | OVCAR-8 > 100 µM | PC-3 > 100 µM | RPMI-8226 > 100 µM | RXF 393 > 100 µM | SF-268 > 100 µM | SF-295 > 100 µM | SF-539 > 100 µM | SK-MEL-28 > 100 µM | SK-MEL-2 > 100 µM | SK-MEL-5 > 100 µM | SK-OV-3 > 100 µM | SN12C > 100 µM | SNB-19 > 100 µM | SNB-75 > 100 µM | SR > 100 µM | SW-620 > 100 µM | T47D > 100 µM | TK-10 > 100 µM | U-251 > 100 µM | UACC-257 > 100 µM | UACC-62 > 100 µM | UO-31 > 100 µM
> 100 µM: HCT-15

Nc1nc(-c2cccs2)cs1
inactive: 786-0 > 100 µM | A498 > 100 µM | A549 58.6 µM | ACHN 98.6 µM | BT-549 95.5 µM | CAKI-1 > 100 µM | CCRF-CEM 29 µM | COLO 205 88.1 µM | DU-145 > 100 µM | EKVX 43.3 µM | HCC 2998 57.9 µM | HCT-116 56.8 µM | HL-60 > 100 µM | HOP-62 > 100 µM | HOP-92 26.4 µM | HT-29 > 100 µM | Hs-578T 37.9 µM | IGROV-1 47.3 µM | K562 > 100 µM | KM12 81.7 µM | LOX IMVI 79.1 µM | M14 > 100 µM | MCF7 91.8 µM | MDA-MB-231 60.4 µM | MDA-MB-435 79.8 µM | MDA-N 45.7 µM | Malme-3M > 100 µM | NCI-H23 > 100 µM | NCI-H460 47.9 µM | NCI-H522 34.9 µM | NCI/ADR-RES 91 µM | OVCAR-3 > 100 µM | OVCAR-4 > 100 µM | OVCAR-5 > 100 µM | OVCAR-8 58.7 µM | PC-3 67.9 µM | RPMI-8226 90.8 µM | RXF 393 > 100 µM | SF-268 > 100 µM | SF-295 64.4 µM | SF-539 > 100 µM | SK-MEL-28 > 100 µM | SK-MEL-2 > 100 µM | SK-MEL-5 73.3 µM | SK-OV-3 > 100 µM | SN12C > 100 µM | SNB-19 > 100 µM | SNB-75 > 100 µM | SR 69.5 µM | SW-620 > 100 µM | T47D 66.8 µM | TK-10 87.9 µM | U-251 71.3 µM | UACC-257 > 100 µM | UACC-62 83.9 µM | UO-31 54.6 µM
83.4 µM: HCT-15
